Experimental data reported in article PMC12679645, “Diversifying the triquinazine scaffold of a Janus kinase inhibitor” (RSC Medicinal Chemistry, 2025).
Where two headings read alike, the source gives them in different places. One block for each molecule: values may come before it.

Legend:
JAK1 [1] = target: T1, JAK1 (Homo sapiens, UniProt P23458); assay: biochemical; set-up: Eurofins Cerep biochemical enzymatic kinase assay, per cent inhibition at a single concentration, duplicate
Protocol: Given the structural similarities between the expanded ring analogues 16a and 16b and the previously described inhibitor KMC420, we initially evaluated their activity at 0.1 μM against JAK1, JAK2, JAK3, and TYK2, using biochemical enzymatic assays provided by Eurofins Cerep SA. […] Spiro diamines containing a deazapurine ring are known JAK inhibitors.[35] […] However, this compound was not tested against the other JAK enzymes. Due to its similarity to our potent compound 40a, we decided to investigate its inhibitory activity against the four enzymes at a concentration of 0.1 μM. […] To investigate the binding differences between 40a and (R)-KMC420, we performed docking studies with DOCK6 using the JAK1 co-crystal structure with tofacitinib (PDB 3EYG) as receptor.

TYK2 [2] = target: T2, TYK2 (Homo sapiens, UniProt P29597); assay: biochemical; set-up: Eurofins Cerep biochemical enzymatic kinase assay, per cent inhibition at a single concentration, duplicate
Description: (§1) Spiro diamines containing a deazapurine ring are known JAK inhibitors.[35]

JAK2 [3] = target: T3, JAK2 (Homo sapiens, UniProt O60674); assay: biochemical; set-up: Eurofins Cerep biochemical enzymatic kinase assay, per cent inhibition at a single concentration, duplicate
Description: as §1

JAK1 [4] = target: T1, JAK1; assay: biochemical enzymatic kinase assay, % inhibition at […]
JAK3 [5] = target: T4, JAK3 (Homo sapiens, UniProt P52333); assay: as above
T4 sequence (P52333 1-1124): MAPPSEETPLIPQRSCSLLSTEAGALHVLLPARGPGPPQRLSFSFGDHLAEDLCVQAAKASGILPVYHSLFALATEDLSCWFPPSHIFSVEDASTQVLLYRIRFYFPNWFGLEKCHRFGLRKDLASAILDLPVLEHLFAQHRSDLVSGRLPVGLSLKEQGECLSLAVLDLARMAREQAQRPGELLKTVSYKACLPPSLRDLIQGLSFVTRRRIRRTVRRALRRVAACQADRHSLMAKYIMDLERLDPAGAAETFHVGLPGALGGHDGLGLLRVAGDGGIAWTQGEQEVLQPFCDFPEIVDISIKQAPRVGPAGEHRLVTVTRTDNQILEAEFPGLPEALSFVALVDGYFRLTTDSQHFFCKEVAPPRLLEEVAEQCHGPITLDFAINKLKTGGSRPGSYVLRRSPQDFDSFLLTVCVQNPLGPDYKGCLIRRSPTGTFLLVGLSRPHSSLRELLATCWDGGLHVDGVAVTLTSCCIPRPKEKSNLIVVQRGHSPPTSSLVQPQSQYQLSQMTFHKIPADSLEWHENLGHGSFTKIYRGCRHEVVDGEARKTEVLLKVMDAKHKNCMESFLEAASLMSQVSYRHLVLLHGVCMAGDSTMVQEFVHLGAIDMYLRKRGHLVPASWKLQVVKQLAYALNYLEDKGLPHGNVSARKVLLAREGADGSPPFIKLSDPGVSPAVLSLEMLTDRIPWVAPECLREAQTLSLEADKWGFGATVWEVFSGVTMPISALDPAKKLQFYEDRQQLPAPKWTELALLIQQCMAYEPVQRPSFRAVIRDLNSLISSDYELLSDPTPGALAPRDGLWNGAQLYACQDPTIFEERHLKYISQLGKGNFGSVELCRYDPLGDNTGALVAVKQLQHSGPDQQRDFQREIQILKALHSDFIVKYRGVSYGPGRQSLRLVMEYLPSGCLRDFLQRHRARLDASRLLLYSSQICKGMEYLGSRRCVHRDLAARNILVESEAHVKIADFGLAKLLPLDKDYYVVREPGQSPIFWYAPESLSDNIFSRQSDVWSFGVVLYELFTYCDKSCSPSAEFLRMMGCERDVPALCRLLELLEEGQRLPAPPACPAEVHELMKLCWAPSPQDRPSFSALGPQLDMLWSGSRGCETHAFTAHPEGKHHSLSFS

TYK2 [6] = target: T2, TYK2; assay: as above
TYK2 [7] = target: T2, TYK2; assay: biochemical; set-up: radiometric filter-binding kinase inhibition assay (Eurofins Cerep), scintillation counting
Protocol: (§2) Given the structural similarities between the expanded ring analogues 16a and 16b and the previously described inhibitor KMC420, we initially evaluated their activity at 0.1 μM against JAK1, JAK2, JAK3, and TYK2, using biochemical enzymatic assays provided by Eurofins Cerep SA.

JAK3 [8] = target: T4, JAK3; assay: biochemical; set-up: radiometric filter-binding kinase inhibition assay (Eurofins Cerep), scintillation counting
Protocol: as §2

JAK2 [9] = target: T3, JAK2; assay: biochemical; set-up: radiometric filter-binding kinase inhibition assay (Eurofins Cerep), scintillation counting
Protocol: as §2

JAK1 [10] = target: T1, JAK1; assay: biochemical; set-up: radiometric filter-binding kinase inhibition assay (Eurofins Cerep), scintillation counting
Protocol: as §2

JAK1 [11] = target: T1, JAK1; assay: biochemical enzymatic kinase assay, % inhibition at […]; remark: listed apart in the source
JAK3 [12] = target: T4, JAK3; assay: biochemical; set-up: Eurofins Cerep biochemical enzymatic kinase assay, per cent inhibition at a single concentration, duplicate; conditions: read-out: % of inhibition ^a / JAK3
JAK1 [13] = target: T1, JAK1; assay: biochemical enzymatic kinase assay (Eurofins Cerep), IC50 curve

T3 sequence (O60674 whole entry): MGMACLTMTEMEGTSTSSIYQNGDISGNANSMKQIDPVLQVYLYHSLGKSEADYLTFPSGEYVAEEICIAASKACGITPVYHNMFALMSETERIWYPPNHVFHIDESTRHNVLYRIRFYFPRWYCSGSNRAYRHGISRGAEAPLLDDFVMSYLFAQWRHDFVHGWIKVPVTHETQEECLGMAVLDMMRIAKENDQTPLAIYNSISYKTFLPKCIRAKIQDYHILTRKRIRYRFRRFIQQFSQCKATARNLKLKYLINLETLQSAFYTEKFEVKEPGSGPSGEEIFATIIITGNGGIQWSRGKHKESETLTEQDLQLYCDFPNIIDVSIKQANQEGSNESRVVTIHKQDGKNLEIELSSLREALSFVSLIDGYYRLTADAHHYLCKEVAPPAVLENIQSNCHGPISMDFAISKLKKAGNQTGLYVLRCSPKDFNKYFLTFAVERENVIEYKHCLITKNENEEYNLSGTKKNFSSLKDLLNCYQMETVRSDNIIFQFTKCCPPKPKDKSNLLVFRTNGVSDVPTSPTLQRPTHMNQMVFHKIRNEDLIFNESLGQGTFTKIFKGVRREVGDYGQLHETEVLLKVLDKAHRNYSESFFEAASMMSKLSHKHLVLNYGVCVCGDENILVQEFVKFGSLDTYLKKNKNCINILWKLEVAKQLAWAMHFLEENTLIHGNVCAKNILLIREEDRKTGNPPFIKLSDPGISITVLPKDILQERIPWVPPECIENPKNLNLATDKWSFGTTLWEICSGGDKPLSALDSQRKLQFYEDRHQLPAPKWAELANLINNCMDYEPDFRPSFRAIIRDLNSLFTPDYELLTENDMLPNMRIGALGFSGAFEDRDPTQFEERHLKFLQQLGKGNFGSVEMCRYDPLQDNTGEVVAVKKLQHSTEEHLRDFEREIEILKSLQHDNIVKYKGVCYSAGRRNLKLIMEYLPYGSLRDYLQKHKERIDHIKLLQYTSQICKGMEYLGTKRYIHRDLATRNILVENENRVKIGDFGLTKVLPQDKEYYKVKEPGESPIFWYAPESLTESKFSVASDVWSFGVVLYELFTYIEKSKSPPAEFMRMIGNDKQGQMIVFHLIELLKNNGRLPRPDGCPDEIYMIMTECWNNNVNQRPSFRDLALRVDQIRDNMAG
T2 sequence (P29597 whole entry): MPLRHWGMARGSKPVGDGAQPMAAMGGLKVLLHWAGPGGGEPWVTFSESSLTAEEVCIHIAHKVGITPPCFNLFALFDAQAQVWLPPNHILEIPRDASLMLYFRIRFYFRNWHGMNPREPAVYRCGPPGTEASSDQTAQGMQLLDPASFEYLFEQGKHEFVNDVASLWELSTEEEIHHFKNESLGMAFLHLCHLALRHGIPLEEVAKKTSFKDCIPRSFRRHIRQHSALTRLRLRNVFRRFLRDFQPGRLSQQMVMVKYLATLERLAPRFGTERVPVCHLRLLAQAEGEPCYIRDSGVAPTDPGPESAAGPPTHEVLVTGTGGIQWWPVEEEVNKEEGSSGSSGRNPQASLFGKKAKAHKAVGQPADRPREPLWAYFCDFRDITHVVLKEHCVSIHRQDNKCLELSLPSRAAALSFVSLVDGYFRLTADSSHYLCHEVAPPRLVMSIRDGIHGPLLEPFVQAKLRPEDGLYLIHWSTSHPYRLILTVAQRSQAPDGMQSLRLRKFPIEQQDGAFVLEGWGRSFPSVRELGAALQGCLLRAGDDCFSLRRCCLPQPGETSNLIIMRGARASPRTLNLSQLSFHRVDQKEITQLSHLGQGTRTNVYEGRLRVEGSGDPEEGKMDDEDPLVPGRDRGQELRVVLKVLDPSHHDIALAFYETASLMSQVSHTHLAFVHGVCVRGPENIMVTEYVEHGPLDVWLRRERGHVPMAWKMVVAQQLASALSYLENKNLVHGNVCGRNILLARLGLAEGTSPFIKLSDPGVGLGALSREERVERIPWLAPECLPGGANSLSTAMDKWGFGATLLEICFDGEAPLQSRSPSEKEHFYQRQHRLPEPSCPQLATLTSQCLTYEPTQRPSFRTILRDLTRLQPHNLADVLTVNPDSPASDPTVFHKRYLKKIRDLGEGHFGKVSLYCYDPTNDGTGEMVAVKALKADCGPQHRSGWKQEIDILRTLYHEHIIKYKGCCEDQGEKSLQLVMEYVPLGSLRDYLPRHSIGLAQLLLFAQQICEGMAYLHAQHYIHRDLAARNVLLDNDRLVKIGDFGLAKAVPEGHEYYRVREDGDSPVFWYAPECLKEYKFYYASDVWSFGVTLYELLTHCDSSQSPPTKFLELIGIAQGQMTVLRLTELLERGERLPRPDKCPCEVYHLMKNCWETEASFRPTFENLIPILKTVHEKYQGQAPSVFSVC
T1 sequence (P23458 whole entry): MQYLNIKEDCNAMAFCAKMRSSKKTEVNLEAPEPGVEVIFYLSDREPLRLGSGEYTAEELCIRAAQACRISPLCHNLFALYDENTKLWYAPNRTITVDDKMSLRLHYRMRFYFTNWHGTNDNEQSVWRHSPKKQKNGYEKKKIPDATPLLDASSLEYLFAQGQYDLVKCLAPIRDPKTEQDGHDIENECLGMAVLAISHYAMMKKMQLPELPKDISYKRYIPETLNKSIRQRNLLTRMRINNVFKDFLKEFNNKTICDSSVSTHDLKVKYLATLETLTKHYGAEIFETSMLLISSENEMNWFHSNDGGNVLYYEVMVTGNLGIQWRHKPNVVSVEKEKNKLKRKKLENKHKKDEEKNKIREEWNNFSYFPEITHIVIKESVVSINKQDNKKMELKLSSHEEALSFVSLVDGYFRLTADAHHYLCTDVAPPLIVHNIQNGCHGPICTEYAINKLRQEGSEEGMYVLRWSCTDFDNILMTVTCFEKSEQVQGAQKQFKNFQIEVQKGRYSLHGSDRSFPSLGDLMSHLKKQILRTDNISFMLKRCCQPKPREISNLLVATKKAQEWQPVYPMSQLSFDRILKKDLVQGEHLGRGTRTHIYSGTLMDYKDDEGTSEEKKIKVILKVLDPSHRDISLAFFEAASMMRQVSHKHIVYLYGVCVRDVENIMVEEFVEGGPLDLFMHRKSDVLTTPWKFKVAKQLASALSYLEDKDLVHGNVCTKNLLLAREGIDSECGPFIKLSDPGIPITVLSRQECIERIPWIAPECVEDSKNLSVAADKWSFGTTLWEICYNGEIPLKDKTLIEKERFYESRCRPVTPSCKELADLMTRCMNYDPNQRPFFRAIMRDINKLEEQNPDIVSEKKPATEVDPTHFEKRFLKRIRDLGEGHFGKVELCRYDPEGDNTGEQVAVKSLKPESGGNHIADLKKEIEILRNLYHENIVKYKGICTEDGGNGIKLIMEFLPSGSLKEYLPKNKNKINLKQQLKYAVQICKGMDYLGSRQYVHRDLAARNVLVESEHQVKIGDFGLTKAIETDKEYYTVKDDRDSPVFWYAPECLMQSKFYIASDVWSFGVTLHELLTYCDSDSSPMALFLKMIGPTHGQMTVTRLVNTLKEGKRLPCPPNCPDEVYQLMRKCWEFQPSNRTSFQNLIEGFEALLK

inhibition at 10 µM (JAK1 [1]): 94%
inhibition at 10 µM (TYK2 [2]): 75 ± 2%
inhibition at 10 µM (JAK2 [3]): 60%
Structure (SMILES): CC12CCN(C(=O)CC#N)C1CCC2Nc1ncnc2[nH]ccc12 (stereo not shown) [36a]

inhibition at 0.1 µM (JAK1 [4]): 70 ± 2%
inhibition at 0.1 µM (JAK3 [5]): 58 ± 1%
inhibition at 0.1 µM (JAK2 [3]): 18 ± 6%
inhibition at 0.1 µM (TYK2 [6]): 61%
inhibition at 1 µM (TYK2 [7]): 92%
inhibition at 10 µM (TYK2 [7]): 91%
inhibition at 1 µM (JAK3 [8]): 96%
inhibition at 10 µM (JAK3 [8]): 79%
inhibition at 1 µM (JAK2 [9]): 58%
inhibition at 10 µM (JAK2 [9]): 85%
inhibition at 1 µM (JAK1 [10]): 95%
inhibition at 10 µM (JAK1 [10]): 100%
Structure (SMILES): C[C@]12CCN(c3ncnc4[nH]ccc34)[C@H]1CC[C@@H]2NC#N (racemic) [40c]

inhibition at 1 µM (TYK2 [2]): 56 ± 1%
inhibition at 1 µM (JAK2 [3]): 61 ± 1%
inhibition at 1 µM (JAK1 [11]): 88 ± 1%
inhibition at 1 µM (JAK3 [12]): 45 ± 6%
Structure (SMILES): CCS(=O)(=O)N[C@@H]1CC[C@@H]2N(c3ncnc4[nH]ccc34)CC[C@@]21C (racemic) [34d]

inhibition at 1 µM (TYK2 [2]): 63 ± 2%
inhibition at 1 µM (JAK2 [3]): 59 ± 4%
inhibition at 1 µM (JAK1 [11]): 93 ± 1%
inhibition at 1 µM (JAK3 [12]): 26 ± 1%
Structure (SMILES): N#CN1CCC2(CCN(c3ncnc4[nH]ccc34)C2)C1 (racemic) [43c]

inhibition at 10 µM (JAK1 [1]): 84 ± 2%
inhibition at 10 µM (TYK2 [2]): 52%
inhibition at 10 µM (JAK2 [3]): 47 ± 2%
inhibition at 10 µM (JAK3 [12]): 63 ± 1%
Structure (SMILES): C=CC(=O)N1CCC2(C)C(Nc3ncnc4[nH]ccc34)CCC12 (stereo not shown) [36b]

inhibition at 1 µM (JAK1 [1]): 73 ± 1%
inhibition at 1 µM (TYK2 [2]): 23 ± 5%
inhibition at 1 µM (JAK2 [3]): 27 ± 3%
inhibition at 1 µM (JAK3 [12]): 38 ± 1%
Structure (SMILES): C=CC(=O)NC1CCC2N(c3ncnc4[nH]ccc34)CCC12C (stereo not shown) [34b]

IC50 (JAK1 [13]): 69 nM
Structure (SMILES): C[C@]12CCN(c3ncnc4[nH]ccc34)[C@H]1CC[C@@H]2NC(=O)CC#N [(R,S,S)-40a]

inhibition at 1 µM (JAK1 [1]): 87 ± 1%
inhibition at 1 µM (TYK2 [2]): 34 ± 8%
inhibition at 1 µM (JAK2 [3]): 54 ± 6%
inhibition at 1 µM (JAK3 [12]): 22 ± 1%
Structure (SMILES): CCS(=O)(=O)N1CCC2(CCN(c3ncnc4[nH]ccc34)C2)C1 (stereo not shown) [43d]

inhibition at 0.1 µM (JAK1 [1]): 28 ± 6%
inhibition at 0.1 µM (TYK2 [2]): 11 ± 12%
inhibition at 0.1 µM (JAK2 [3]): 1 ± 8%
inhibition at 0.1 µM (JAK3 [12]): -10 ± 11%
inhibition at 1 µM (JAK3 [8]): 11%
inhibition at 1 µM (JAK2 [9]): 38%
inhibition at 1 µM (JAK1 [10]): 76%
Structure (SMILES): CCS(=O)(=O)NC1CCC2N(c3ncnc4[nH]ccc34)CCC12C (stereo not shown) [40d]

inhibition at 1 µM (JAK1 [1]): 85 ± 1%
inhibition at 1 µM (TYK2 [2]): 41 ± 6%
inhibition at 1 µM (JAK2 [3]): 41 ± 5%
inhibition at 1 µM (JAK3 [12]): 43 ± 5%
Structure (SMILES): CC12CCN(c3ncnc4[nH]ccc34)C1CCC2NC(=O)CC#N (stereo not shown) [34a]

inhibition at 10 µM (JAK1 [1]): 86 ± 1%
inhibition at 10 µM (TYK2 [2]): 67 ± 1%
inhibition at 10 µM (JAK2 [3]): 51 ± 3%
inhibition at 10 µM (JAK3 [12]): 42 ± 3%
inhibition at 1 µM (TYK2 [7]): 53%
inhibition at 10 µM (TYK2 [7]): 97%
inhibition at 1 µM (JAK3 [8]): 44%
inhibition at 10 µM (JAK3 [8]): 96%
inhibition at 1 µM (JAK2 [9]): 11%
inhibition at 10 µM (JAK2 [9]): 98%
inhibition at 1 µM (JAK1 [10]): 45%
inhibition at 10 µM (JAK1 [10]): 99%
Structure (SMILES): CCS(=O)(=O)N1CCC2(C)C(Nc3ncnc4[nH]ccc34)CCC12 (stereo not shown) [36d]

inhibition at 1 µM (TYK2 [2]): 53 ± 5%
inhibition at 1 µM (JAK2 [3]): 45 ± 8%
inhibition at 1 µM (JAK1 [11]): 89 ± 2%
inhibition at 1 µM (JAK3 [12]): 43 ± 3%
Structure (SMILES): C[C@]12CCN(c3ncnc4[nH]ccc34)[C@H]1CC[C@H]2NC#N (racemic) [34c]

inhibition at 0.1 µM (JAK1 [4]): 59 ± 2%
inhibition at 0.1 µM (TYK2 [2]): 16 ± 2%
inhibition at 0.1 µM (JAK2 [3]): 8 ± 1%
inhibition at 0.1 µM (JAK3 [12]): 4 ± 1%
inhibition at 1 µM (TYK2 [7]): 70%
inhibition at 10 µM (TYK2 [7]): 100%
inhibition at 1 µM (JAK3 [8]): 55%
inhibition at 10 µM (JAK3 [8]): 99%
inhibition at 1 µM (JAK2 [9]): 52%
inhibition at 10 µM (JAK2 [9]): 96%
inhibition at 1 µM (JAK1 [10]): 93%
inhibition at 10 µM (JAK1 [10]): 100%
Structure (SMILES): C=CC(=O)N[C@H]1CC[C@@H]2N(c3ncnc4[nH]ccc34)CC[C@]12C (racemic) [40b]

inhibition at 10 µM (JAK1 [1]): 92%
inhibition at 10 µM (TYK2 [2]): 74 ± 3%
inhibition at 10 µM (JAK2 [3]): 80 ± 3%
Structure (SMILES): CC12CCN(C#N)C1CCC2Nc1ncnc2[nH]ccc12 (stereo not shown) [36c]

inhibition at 0.1 µM (JAK1 [1]): 80 ± 3%
inhibition at 0.1 µM (TYK2 [2]): 29 ± 3%
inhibition at 0.1 µM (JAK2 [3]): 3 ± 1%
inhibition at 0.1 µM (JAK3 [12]): 27 ± 1%
inhibition at 1 µM (TYK2 [7]): 82%
inhibition at 10 µM (TYK2 [7]): 95%
inhibition at 1 µM (JAK3 [8]): 79%
inhibition at 10 µM (JAK3 [8]): 89%
inhibition at 1 µM (JAK2 [9]): 72%
inhibition at 10 µM (JAK2 [9]): 91%
inhibition at 1 µM (JAK1 [10]): 99%
inhibition at 10 µM (JAK1 [10]): 99%
Structure (SMILES): CC12CCN(c3ncnc4[nH]ccc34)C1CCC2NC(=O)CC#N (stereo not shown) [40a]

IC50 (JAK1 [13]): 18 nM
Structure (SMILES): C[C@@]12CCN(c3ncnc4[nH]ccc34)[C@@H]1CC[C@H]2NC(=O)CC#N [(S,R,R)-40a]
